Test results: paper PMC7254991, “Design and validation of fibroblast activation protein alpha targeted imaging and therapeutic agents” (Theranostics, 2020)

Biological target: T1, fibroblast activation protein alpha (FAP) (Homo sapiens, UniProt Q12884)
T1 construct: human FAP expressed on HEK293 cells (HEK293-hFAP)
T1 sequence (Q12884 1-760): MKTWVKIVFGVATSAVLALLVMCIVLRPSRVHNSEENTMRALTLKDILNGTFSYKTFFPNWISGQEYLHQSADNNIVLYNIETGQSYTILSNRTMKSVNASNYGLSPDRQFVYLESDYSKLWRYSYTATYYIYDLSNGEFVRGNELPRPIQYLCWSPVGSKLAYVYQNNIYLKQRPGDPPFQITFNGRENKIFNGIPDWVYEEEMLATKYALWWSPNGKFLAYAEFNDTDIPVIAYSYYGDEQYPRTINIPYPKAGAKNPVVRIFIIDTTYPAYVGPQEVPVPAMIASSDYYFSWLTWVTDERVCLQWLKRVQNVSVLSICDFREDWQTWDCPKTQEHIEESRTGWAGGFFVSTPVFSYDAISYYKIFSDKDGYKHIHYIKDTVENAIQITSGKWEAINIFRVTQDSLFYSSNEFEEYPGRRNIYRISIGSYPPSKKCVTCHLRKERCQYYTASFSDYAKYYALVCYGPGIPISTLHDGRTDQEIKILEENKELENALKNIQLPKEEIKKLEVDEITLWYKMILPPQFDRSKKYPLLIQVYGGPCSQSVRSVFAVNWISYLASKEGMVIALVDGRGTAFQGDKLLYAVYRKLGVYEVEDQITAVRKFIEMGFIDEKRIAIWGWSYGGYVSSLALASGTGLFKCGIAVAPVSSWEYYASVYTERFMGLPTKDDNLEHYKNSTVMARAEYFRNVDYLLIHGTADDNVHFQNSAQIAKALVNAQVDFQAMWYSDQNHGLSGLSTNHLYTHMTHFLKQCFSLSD
Assay: competition (excess unlabeled FL) against FL-L1-FITC, FL-L1-S0456 and […]mTc-FL-L3 binding on HEK293-hFAP cells
Type: cell-based

SMILES: C[C@H](NC(=O)c1ccnc(CN)c1)C(=O)N1CC(F)(F)C[C@H]1C#N [compound 8, FL]
- competition (excess unlabeled FL) against FL-L1-FITC, FL-L1-S0456 and 99mTc-FL-L: Blocking of FL-L1-FITC related fluorescence by unlabeled FAP ligand (FL), indicated FAP mediated uptake of FL-L1-FITC in HEK293-hFAP cells
